This is an account of results in ChEMBL document CHEMBL5352478, “Novel pyridine-containing histone deacetylase inhibitors strongly arrest proliferation, induce apoptosis and modulate miRNAs in cancer cells” (Eur J Med Chem, 2023).

Assay [1] concerns U-937. Put plainly: Induction of cell cycle arrest in human U-937 cells assessed as accumulation of cells in pre-G1 phase at 1 uM for 48 hrs by PI staining based flow cytometric analysis. It is filed as functional. Background: In flow cytometry, cells or beads pass a laser one at a time.
Assay [2] deals with T1, Protein deacetylase HDAC6 (Homo sapiens, UniProt Q9UBN7).
T1 sequence (Q9UBN7 whole entry): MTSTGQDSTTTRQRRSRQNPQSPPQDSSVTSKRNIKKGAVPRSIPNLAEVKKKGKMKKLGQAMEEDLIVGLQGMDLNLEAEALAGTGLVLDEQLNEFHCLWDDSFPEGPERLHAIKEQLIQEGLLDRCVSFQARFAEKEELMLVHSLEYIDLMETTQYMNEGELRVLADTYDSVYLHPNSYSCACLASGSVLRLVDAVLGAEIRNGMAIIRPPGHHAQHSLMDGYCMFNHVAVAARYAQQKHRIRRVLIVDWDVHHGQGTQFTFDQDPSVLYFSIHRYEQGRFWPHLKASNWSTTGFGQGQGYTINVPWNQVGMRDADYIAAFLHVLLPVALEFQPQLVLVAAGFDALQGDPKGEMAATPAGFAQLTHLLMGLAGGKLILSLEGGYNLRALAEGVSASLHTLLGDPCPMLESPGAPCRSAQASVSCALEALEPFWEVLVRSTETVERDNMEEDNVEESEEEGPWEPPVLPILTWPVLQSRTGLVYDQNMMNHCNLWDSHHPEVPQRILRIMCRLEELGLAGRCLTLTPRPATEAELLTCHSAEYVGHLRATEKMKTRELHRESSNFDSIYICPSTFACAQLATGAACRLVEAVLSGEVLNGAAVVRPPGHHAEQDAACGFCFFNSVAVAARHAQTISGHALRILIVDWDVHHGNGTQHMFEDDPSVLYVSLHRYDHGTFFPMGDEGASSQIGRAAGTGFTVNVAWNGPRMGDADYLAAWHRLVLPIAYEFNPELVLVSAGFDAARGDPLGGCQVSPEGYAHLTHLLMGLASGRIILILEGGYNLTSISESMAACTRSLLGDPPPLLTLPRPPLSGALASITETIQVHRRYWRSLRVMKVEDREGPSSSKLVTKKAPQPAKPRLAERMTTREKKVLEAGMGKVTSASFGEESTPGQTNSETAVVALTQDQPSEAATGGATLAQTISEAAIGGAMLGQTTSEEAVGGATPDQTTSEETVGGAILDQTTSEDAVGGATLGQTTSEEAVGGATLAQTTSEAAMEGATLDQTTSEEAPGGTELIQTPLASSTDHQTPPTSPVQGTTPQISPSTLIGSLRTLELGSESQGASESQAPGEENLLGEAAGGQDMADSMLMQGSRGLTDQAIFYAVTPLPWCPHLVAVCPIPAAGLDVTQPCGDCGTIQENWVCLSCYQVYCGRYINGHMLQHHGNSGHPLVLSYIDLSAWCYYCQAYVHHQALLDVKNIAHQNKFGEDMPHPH
To be noted: read-out: IC50.

Assay [3] concerns U-937. Put plainly: Induction of cell cycle arrest in human U-937 cells assessed as accumulation of cells in G2/M phase at 1 uM for 24 hrs by PI staining based flow cytometric analysis. It is filed as functional.
Assay [4] has as its system K562. The assay is described as follows: Potency index, ratio of SAHA IC50 to test compound IC50 for antiproliferative activity against human K562 cell. It is filed as functional.
Assay [5] deals with U-937. Put plainly: Induction of cell cycle arrest in human U-937 cells assessed as cell death at 5 uM for 48 hrs by PI staining based flow cytometric analysis. It is filed as functional.
Assay [6] deals with HCT-116. Put plainly: cells. It is filed as functional, cell-based. Particulars: Homo sapiens, HCT-116, 72 h.
Assay [7] concerns K562. Put plainly: cells. It is filed as functional, cell-based. To be noted: Homo sapiens, K562, 72 h.
Assay [8] concerns A549. Put plainly: cells. It is filed as functional, cell-based. Particulars: Homo sapiens, A549, 72 h.
In assay [9] the test system is U-937. Put plainly: Induction of cell cycle arrest in human U-937 cells assessed as accumulation of cells in G1 phase at 1 to 5 uM for 48 hrs by PI staining based flow cytometric analysis. To be noted: dose 1-5 µM. It is filed as functional.
Assay [10] relates to U-937. Put plainly: Induction of cell cycle arrest in human U-937 cells assessed as accumulation of cells in pre-G1 phase at 5 uM for 48 hrs by PI staining based flow cytometric analysis. It is filed as functional.
In assay [11] the test system is U-937. Put plainly: Induction of cell cycle arrest in human U-937 cells assessed as accumulation of cells in pre-G1 phase at 5 uM for 24 hrs by PI staining based flow cytometric analysis. It is filed as functional.
Assay [12] relates to U-937. Put plainly: Induction of cell cycle arrest in human U-937 cells assessed as accumulation of cells in G1 phase at 5 uM for 48 hrs by PI staining based flow cytometric analysis. It is filed as functional.

`O=C(/C=C/c1ccc(NC(=O)C(Cc2ccccc2)c2ccccc2)cn1)NO` (stereo not given): the Activity in assay [1] came to 40%; in [3], 60%; in assay [5], 76%; in [9] it was 70%; in assay [10], 40%; in [11], 10%. In addition, the IC50 in [2] stood at 11 nM; in assay [6] it was 70 nM; in assay [7], 40 nM; in [8], 220 nM. Also, in assay [4], the “Ratio IC50” value came out at 10.

As for `Nc1ccccc1NC(=O)c1ccc(CNC(=O)OCc2cccnc2)cc1` [ENTINOSTAT], the Activity in assay [12] was 70%. Moreover, the IC50 turned out to be 1060 nM in assay [6], 570 nM in assay [7] and 2250 nM in assay [8].

Usually IC50 stands for the concentration needed to halve the response being measured.
